# Source: ChEMBL document CHEMBL3885861, “Open TG-GATES”
# Species: Rattus norvegicus
# Assay: Open TG-GATES - Regimen: Daily Repeat
# Type: toxicity, organism-based, Sprague-Dawley
# Parameters: regimen Daily Repeat, gender Male, age 6 weeks
# Settings: in vivo, po, route gavage; for APTT / Bas / Eos / Fbg / Hb / Ht / Lym / MCH / MCHC / MCV / Mono / PT / Plat / RBC / Ret / WBC: tissue Blood; for KIDNEY_L / KIDNEY_R / KIDNEY_TOTAL: tissue Kidney
# [1] = 0 mg/kg, 72 h, dose level Control, time 3 day
# [2] = 0 mg/kg, 72 h, tissue Plasma, dose level Control, time 3 day
# [3] = 0 mg/kg, […], dose level Control, time 7 day
# [4] = 0 mg/kg, […], dose level Control, time 14 day
# [5] = 0 mg/kg, […], dose level Control, time 28 day
# [6] = 0 mg/kg, […], tissue Plasma, dose level Control, time 7 day
# [7] = 0 mg/kg, […], tissue Plasma, dose level Control, time 14 day
# [8] = 0 mg/kg, […], tissue Plasma, dose level Control, time 28 day
structure (smiles),measurement,setting,value
CC(C)Cc1ccc(C(C)C(=O)O)cc1 (configuration not stated) [IBUPROFEN],TERMINAL_BW,[1],222.9 g
same,APTT,[1],20.4 s
same,Bas,[1],0%
same,Eos,[1],1%
same,Fbg,[1],283.4 mg/dL
same,Hb,[1],13.2 g/dL
same,Ht,[1],38.4%
same,Lym,[1],79.8%
same,MCH,[1],22.3 pg
same,MCHC,[1],34.5%
same,MCV,[1],64.7 fL
same,Mono,[1],2.8%
same,PT,[1],15.5 s
same,Plat,[1],111.7 x10_4/uL
same,RBC,[1],593 x10_4/ul
same,Ret,[1],6.7%
same,WBC,[1],110.2 x10_2/uL
same,KIDNEY_L,[1],0.9 g
same,KIDNEY_R,[1],1 g
same,KIDNEY_TOTAL,[1],1.9 g
same,ALP,[2],1697.6 IU/L
same,ALT,[2],44.8 IU/L
same,AST,[2],76.6 IU/L
same,BUN,[2],17.2 mg/dL
same,CRE,[2],0.2 mg/dL
same,Ca,[2],11 mg/dL
same,DBIL,[2],0 mg/dL
same,GLC,[2],200 mg/dL
same,IP,[2],7.7 mg/dL
same,K,[2],4.1 meq/L
same,LDH,[2],208 IU/L
same,Na,[2],141.4 meq/L
same,PL,[2],143.6 mg/dL
same,RALB,[2],3 g/dL
same,TBIL,[2],0.006 mg/dL
same,TC,[2],77 mg/dL
same,TG,[2],84 mg/dL
same,TP,[2],5.5 g/dL
same,gamma-GTP,[2],1.2 IU/L
same,TERMINAL_BW,[3],270 g
same,TERMINAL_BW,[4],304.6 g
same,TERMINAL_BW,[5],398.5 g
same,APTT,[3],21.5 s
same,Bas,[3],0%
same,Eos,[3],0.8%
same,Fbg,[3],292.8 mg/dL
same,Hb,[3],13.1 g/dL
same,Ht,[3],37.3%
same,Lym,[3],80%
same,MCH,[3],21.6 pg
same,MCHC,[3],35%
same,MCV,[3],61.7 fL
same,Mono,[3],2.4%
same,PT,[3],16.1 s
same,Plat,[3],123.8 x10_4/uL
same,RBC,[3],604.6 x10_4/ul
same,Ret,[3],6.7%
same,WBC,[3],126 x10_2/uL
same,Bas,[4],0%
same,Eos,[4],0.6%
same,Fbg,[4],355.2 mg/dL
same,Ht,[4],41.1%
same,Lym,[4],83.8%
same,MCHC,[4],34.7%
same,MCV,[4],59.9 fL
same,Mono,[4],2%
same,PT,[4],16 s
same,Plat,[4],115.8 x10_4/uL
same,RBC,[4],686.2 x10_4/ul
same,Ret,[4],4.9%
same,WBC,[4],104.5 x10_2/uL
same,APTT,[5],21.9 s
same,Bas,[5],0%
same,Eos,[5],1.2%
same,Fbg,[5],340.2 mg/dL
same,Hb,[5],14.8 g/dL
same,Ht,[5],43%
same,Lym,[5],84.4%
same,MCH,[5],19.2 pg
same,MCHC,[5],34.4%
same,MCV,[5],55.9 fL
same,Mono,[5],2.2%
same,PT,[5],16.9 s
same,RBC,[5],768.2 x10_4/ul
same,Ret,[5],2.7%
same,KIDNEY_L,[3],1.1 g
same,KIDNEY_R,[3],1.2 g
same,KIDNEY_TOTAL,[3],2.3 g
same,KIDNEY_L,[4],1.2 g
same,KIDNEY_R,[4],1.2 g
same,KIDNEY_TOTAL,[4],2.4 g
same,KIDNEY_L,[5],1.3 g
same,KIDNEY_R,[5],1.4 g
same,KIDNEY_TOTAL,[5],2.7 g
same,ALP,[6],1943 IU/L
same,ALT,[6],46.8 IU/L
same,AST,[6],76.6 IU/L
same,BUN,[6],18.6 mg/dL
same,CRE,[6],0.2 mg/dL
same,DBIL,[6],0 mg/dL
same,GLC,[6],179.2 mg/dL
same,IP,[6],7.6 mg/dL
same,K,[6],4.2 meq/L
same,LDH,[6],170.2 IU/L
same,Na,[6],138.6 meq/L
same,PL,[6],136.2 mg/dL
same,RALB,[6],3.1 g/dL
same,TBIL,[6],0.004 mg/dL
same,TC,[6],71.2 mg/dL
same,TG,[6],100.8 mg/dL
same,TP,[6],5.5 g/dL
same,gamma-GTP,[6],2.6 IU/L
same,ALP,[7],1425.2 IU/L
same,ALT,[7],37.4 IU/L
same,AST,[7],65.8 IU/L
same,BUN,[7],19.2 mg/dL
same,CRE,[7],0.2 mg/dL
same,DBIL,[7],0 mg/dL
same,GLC,[7],200.4 mg/dL
same,IP,[7],7.7 mg/dL
same,K,[7],4.1 meq/L
same,LDH,[7],118.4 IU/L
same,Na,[7],140.6 meq/L
same,PL,[7],149 mg/dL
same,RALB,[7],3 g/dL
same,TBIL,[7],0.012 mg/dL
same,TC,[7],73.4 mg/dL
same,TP,[7],5.8 g/dL
same,gamma-GTP,[7],2.2 IU/L
same,ALP,[8],1191 IU/L
same,ALT,[8],35.2 IU/L
same,AST,[8],66.2 IU/L
same,CRE,[8],0.2 mg/dL
same,DBIL,[8],0 mg/dL
same,GLC,[8],196 mg/dL
same,IP,[8],6.3 mg/dL
same,K,[8],4.1 meq/L
same,LDH,[8],170.6 IU/L
same,Na,[8],140.8 meq/L
same,PL,[8],144.6 mg/dL
same,RALB,[8],3.2 g/dL
same,TBIL,[8],0.002 mg/dL
same,TC,[8],66.6 mg/dL
same,TG,[8],143.8 mg/dL
same,TP,[8],6.1 g/dL
same,gamma-GTP,[8],3 IU/L
same,TERMINAL_BW,"20 mg/kg, 72 h, dose level Low, time 3 day",230.1 g
